Literature values in patent US20250114375A1, “PHARMACEUTICAL COMPOSITION OF LIFITEGRAST AND LOTEPREDNOL ETABONATE” (ORBICULAR PHARMACEUTICAL TECHNOLOGIES PRIVATE LIMITED, priority 2022, published 2025).

Legend:
[1] = tested on: conjunctival goblet cells; settings: in vivo
glucocorticoid receptors = target: T1, glucocorticoid receptors (Homo sapiens, UniProt P04150); settings: inactive carboxylic acid metabolite of loteprednol etabonate
T1 sequence (P04150 1-777): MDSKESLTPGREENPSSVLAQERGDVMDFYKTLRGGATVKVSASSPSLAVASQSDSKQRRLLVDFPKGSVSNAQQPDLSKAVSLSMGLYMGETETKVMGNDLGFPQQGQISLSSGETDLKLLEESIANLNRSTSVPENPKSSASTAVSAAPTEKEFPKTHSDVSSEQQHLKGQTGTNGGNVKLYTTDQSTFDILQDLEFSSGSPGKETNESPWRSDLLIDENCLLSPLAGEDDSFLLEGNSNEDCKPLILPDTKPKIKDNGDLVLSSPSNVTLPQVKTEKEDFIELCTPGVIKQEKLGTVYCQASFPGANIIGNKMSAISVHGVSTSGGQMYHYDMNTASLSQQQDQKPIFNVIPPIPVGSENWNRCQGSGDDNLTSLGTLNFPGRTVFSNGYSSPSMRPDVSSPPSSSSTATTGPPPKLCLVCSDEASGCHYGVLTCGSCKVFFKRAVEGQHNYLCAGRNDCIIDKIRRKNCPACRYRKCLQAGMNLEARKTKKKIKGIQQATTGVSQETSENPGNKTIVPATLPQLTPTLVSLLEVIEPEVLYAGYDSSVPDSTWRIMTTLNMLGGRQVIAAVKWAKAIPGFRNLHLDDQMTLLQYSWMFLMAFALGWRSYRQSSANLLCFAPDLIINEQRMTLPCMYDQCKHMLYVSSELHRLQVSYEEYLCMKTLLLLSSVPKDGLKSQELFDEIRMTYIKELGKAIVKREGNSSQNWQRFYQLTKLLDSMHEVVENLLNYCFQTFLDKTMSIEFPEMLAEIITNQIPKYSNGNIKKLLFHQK

SMILES	increase of goblet cell area [1] [%]	increase of the number of conjunctival goblet cells [1] [%]	binding to glucocorticoid receptors (glucocorticoid receptors)
CS(=O)(=O)c1cccc(C[C@H](NC(=O)c2c(Cl)cc3c(c2Cl)CCN(C(=O)c2ccc4ccoc4c2)C3)C(=O)O)c1 [Lifitegrast]	22	39	–
CCOC(=O)OC1(C(=O)O)CCC2C3CCC4=CC(=O)C=CC4(C)C3C(O)CC21C (stereo not drawn) [PJ-91]	–	–	does not bind
